Calls of active or inactive are those of the source.
Key:
[1] = target: T1, Genome polyprotein (dengue virus type 2, UniProt P29990); test: Inhibition of Dengue virus serotype 2 NS2B-NS3 protease transfected in human HeLa cells measured after 24 hrs by Renilla-luciferase reporter gene assay; assay type: cell-based
[2] = target: Genome polyprotein (dengue virus type 2) (UniProt P29990); test: Inhibition of Dengue virus serotype 2 NS2B-NS3 protease expressed in Escherichia coli BL21 lambda (DE3) cells at 50 uM using Abz-Nle-Lys-Arg-Arg-Ser-3-(NO2)Tyr as substrate preincubated for 15 mins followed by substrate addition and measured for 15 mins by FRET assay relative to control
[3] = Permeability of the compound assessed as drug level in acceptor plate at 200 uM measured after 5 hrs at pH 7.4 by PAMPA; assay type: ADME; settings: pH 7.4, 5 h
[4] = target: Prothrombin (Homo sapiens, UniProt P00734); test: Inhibition of thrombin (unknown origin) at 25 uM using Boc-Val-Pro-Arg-AMC as substrate preincubated for 15 mins followed by substrate addition and measured for 15 mins by fluorimetric assay; settings: 0.25 h
[5] = target: T2, Trypsin (Homo sapiens, UniProt P07477+P07478+P35030); test: Inhibition of trypsin (unknown origin) at 50 uM using Boc-Val-Pro-Arg-AMC as substrate preincubated for 15 mins followed by substrate addition and measured for 15 mins by fluorimetric assay relative to control; assay type: protein assay; settings: for inhibition (INH): 0.25 h, 50 µM; for inhibition at 0.25 h, 50 µM: trypsin (unknown origin), probe Boc-Val-Pro-Arg-AMC
[6] = Cytotoxicity against human HeLa cells assessed as reduction in cell viability measured after 24 hrs by celltiter-blue assay; assay type: cell-based
[7] = target: T3, Genome polyprotein (West Nile virus, UniProt P06935); test: Inhibition of West Nile virus NS2B-NS3 protease expressed in Escherichia coli BL21 lambda (DE3) cells using Abz-Gly-Leu-Lys-Arg-Gly-Gly-3-(NO2)Tyr as substrate preincubated for 15 mins followed by substrate addition measured for 15 mins by fluorimetric analysis
[8] = target: T1, Genome polyprotein; test: Inhibition of Dengue virus serotype 2 NS2B-NS3 protease expressed in Escherichia coli BL21 lambda (DE3) cells using Abz-Nle-Lys-Arg-Arg-Ser-3-(NO2)Tyr as substrate preincubated for 15 mins followed by substrate addition and measured for 15 mins by FRET assay
[9] = target: Genome polyprotein (dengue virus type 2) (UniProt P29990); test: Inhibition of Dengue virus serotype 2 NS2B-NS3 protease transfected in human HeLa cells at 12.5 uM measured after 24 hrs by Renilla-luciferase reporter gene assay relative to control; assay type: cell-based
[10] = Permeability of the compound assessed as mass retention at 200 uM measured after 5 hrs at pH 7.4 by PAMPA; assay type: ADME; settings: pH 7.4, 5 h
[11] = Permeability of the compound assessed as drug level in donor plate at 200 uM measured after 5 hrs at pH 7.4 by PAMPA; assay type: ADME; settings: pH 7.4, 5 h
[12] = Permeability of the compound at 200 uM measured after 5 hrs at pH 7.4 by PAMPA; assay type: ADME; settings: read-out: permeability
[13] = tested on: dengue virus type 2; test: Antiviral activity against DENV2 infected in human HuH7 cells assessed as reduction in virus titer at 12.5 uM measured after 48 hrs relative to control; assay type: functional; settings: Huh-7, 48 h
[14] = target: Genome polyprotein (West Nile virus) (UniProt P06935); test: Inhibition of West Nile virus NS2B-NS3 protease expressed in Escherichia coli BL21 lambda (DE3) cells at 50 uM using Abz-Gly-Leu-Lys-Arg-Gly-Gly-3-(NO2)Tyr as substrate preincubated for 15 mins followed by substrate addition measured for 15 mins by fluorimetric analysis relative to control
[15] = tested on: Huh-7; test: Cytotoxicity against human HuH7 cells assessed as reduction in cell viability at 12 uM measured after 48 hrs by celltiter-blue assay; assay type: cell-based; settings: huh-7, 48 h
[16] = target: T1, Genome polyprotein; test: Inhibition of Dengue virus serotype 2 NS2B-NS3 protease expressed in Escherichia coli BL21 lambda (DE3) cells using Abz-Nle-Lys-Arg-Arg-Ser-3-(NO2)Tyr as substrate preincubated for 15 mins followed by substrate addition and measured after 15 mins by HPLC analysis
[17] = target: T3, Genome polyprotein; test: Inhibition of West Nile virus NS2B-NS3 protease expressed in Escherichia coli BL21 lambda (DE3) cells using Abz-Gly-Leu-Lys-Arg-Gly-Gly-3-(NO2)Tyr as substrate preincubated for 15 mins followed by substrate addition measured after 15 mins by HPLC analysis
[18] = target: Genome polyprotein (West Nile virus) (UniProt P06935); test: Inhibition of West Nile virus NS2B-NS3 protease expressed in Escherichia coli BL21 lambda (DE3) cells at 50 uM using Abz-Gly-Leu-Lys-Arg-Gly-Gly-3-(NO2)Tyr as substrate preincubated for 15 mins followed by substrate addition measured after 15 mins by HPLC analysis relative to control
[19] = target: Genome polyprotein (dengue virus type 2) (UniProt P29990); test: Inhibition of Dengue virus serotype 2 NS2B-NS3 protease expressed in Escherichia coli BL21 lambda (DE3) cells at 50 uM measured after 1 hr in presence of DENV protease inhibitor aprotinin by tryptophan fluorescence quenching method
[20] = target: Genome polyprotein (dengue virus type 2) (UniProt P29990); test: Inhibition of Dengue virus serotype 2 NS2B-NS3 protease expressed in Escherichia coli BL21 lambda (DE3) cells measured after 1 hr by tryptophan fluorescence quenching method
[21] = target: Genome polyprotein (dengue virus type 2) (UniProt P29990); test: Inhibition of Dengue virus serotype 2 NS2B-NS3 protease expressed in Escherichia coli BL21 lambda (DE3) cells at 50 uM using Abz-Nle-Lys-Arg-Arg-Ser-3-(NO2)Tyr as substrate preincubated for 15 mins followed by substrate addition and measured after 15 mins by HPLC analysis relative to control
[22] = target: T2, Trypsin; test: Inhibition of trypsin (unknown origin) using Boc-Val-Pro-Arg-AMC as substrate preincubated for 15 mins followed by substrate addition and measured for 15 mins by fluorimetric assay; assay type: protein assay
[23] = target: Genome polyprotein (dengue virus type 2) (UniProt P29990); test: Competitive inhibition of Dengue virus serotype 2 NS2B-NS3 protease expressed in Escherichia coli BL21 lambda (DE3) cells using varying levels of Abz-Nle-Lys-Arg-Arg-Ser-3-(NO2)Tyr as substrate by Cheng-Prusoff plot analysis
[24] = target: Genome polyprotein (West Nile virus) (UniProt P06935); test: Competitive inhibition of West Nile virus NS2B-NS3 protease expressed in Escherichia coli BL21 lambda (DE3) cells using varying levels of Abz-Gly-Leu-Lys-Arg-Gly-Gly-3-(NO2)Tyr as substrate by Cheng-Prusoff plot analysis
[25] = tested on: dengue virus type 2; test: Antiviral activity against DENV2 infected in human HuH7 cells assessed as reduction in virus titer measured after 48 hrs; assay type: functional, organism-based; settings: Huh-7, 48 h
[26] = tested on: dengue virus type 2; test: Antiviral activity against DENV2 infected in human HuH7 cells assessed as reduction in virus titer at 10 uM measured after 48 hrs relative to control; assay type: functional; settings: Huh-7, 48 h

Chain of Genome polyprotein (West Nile virus) (P06935 whole entry): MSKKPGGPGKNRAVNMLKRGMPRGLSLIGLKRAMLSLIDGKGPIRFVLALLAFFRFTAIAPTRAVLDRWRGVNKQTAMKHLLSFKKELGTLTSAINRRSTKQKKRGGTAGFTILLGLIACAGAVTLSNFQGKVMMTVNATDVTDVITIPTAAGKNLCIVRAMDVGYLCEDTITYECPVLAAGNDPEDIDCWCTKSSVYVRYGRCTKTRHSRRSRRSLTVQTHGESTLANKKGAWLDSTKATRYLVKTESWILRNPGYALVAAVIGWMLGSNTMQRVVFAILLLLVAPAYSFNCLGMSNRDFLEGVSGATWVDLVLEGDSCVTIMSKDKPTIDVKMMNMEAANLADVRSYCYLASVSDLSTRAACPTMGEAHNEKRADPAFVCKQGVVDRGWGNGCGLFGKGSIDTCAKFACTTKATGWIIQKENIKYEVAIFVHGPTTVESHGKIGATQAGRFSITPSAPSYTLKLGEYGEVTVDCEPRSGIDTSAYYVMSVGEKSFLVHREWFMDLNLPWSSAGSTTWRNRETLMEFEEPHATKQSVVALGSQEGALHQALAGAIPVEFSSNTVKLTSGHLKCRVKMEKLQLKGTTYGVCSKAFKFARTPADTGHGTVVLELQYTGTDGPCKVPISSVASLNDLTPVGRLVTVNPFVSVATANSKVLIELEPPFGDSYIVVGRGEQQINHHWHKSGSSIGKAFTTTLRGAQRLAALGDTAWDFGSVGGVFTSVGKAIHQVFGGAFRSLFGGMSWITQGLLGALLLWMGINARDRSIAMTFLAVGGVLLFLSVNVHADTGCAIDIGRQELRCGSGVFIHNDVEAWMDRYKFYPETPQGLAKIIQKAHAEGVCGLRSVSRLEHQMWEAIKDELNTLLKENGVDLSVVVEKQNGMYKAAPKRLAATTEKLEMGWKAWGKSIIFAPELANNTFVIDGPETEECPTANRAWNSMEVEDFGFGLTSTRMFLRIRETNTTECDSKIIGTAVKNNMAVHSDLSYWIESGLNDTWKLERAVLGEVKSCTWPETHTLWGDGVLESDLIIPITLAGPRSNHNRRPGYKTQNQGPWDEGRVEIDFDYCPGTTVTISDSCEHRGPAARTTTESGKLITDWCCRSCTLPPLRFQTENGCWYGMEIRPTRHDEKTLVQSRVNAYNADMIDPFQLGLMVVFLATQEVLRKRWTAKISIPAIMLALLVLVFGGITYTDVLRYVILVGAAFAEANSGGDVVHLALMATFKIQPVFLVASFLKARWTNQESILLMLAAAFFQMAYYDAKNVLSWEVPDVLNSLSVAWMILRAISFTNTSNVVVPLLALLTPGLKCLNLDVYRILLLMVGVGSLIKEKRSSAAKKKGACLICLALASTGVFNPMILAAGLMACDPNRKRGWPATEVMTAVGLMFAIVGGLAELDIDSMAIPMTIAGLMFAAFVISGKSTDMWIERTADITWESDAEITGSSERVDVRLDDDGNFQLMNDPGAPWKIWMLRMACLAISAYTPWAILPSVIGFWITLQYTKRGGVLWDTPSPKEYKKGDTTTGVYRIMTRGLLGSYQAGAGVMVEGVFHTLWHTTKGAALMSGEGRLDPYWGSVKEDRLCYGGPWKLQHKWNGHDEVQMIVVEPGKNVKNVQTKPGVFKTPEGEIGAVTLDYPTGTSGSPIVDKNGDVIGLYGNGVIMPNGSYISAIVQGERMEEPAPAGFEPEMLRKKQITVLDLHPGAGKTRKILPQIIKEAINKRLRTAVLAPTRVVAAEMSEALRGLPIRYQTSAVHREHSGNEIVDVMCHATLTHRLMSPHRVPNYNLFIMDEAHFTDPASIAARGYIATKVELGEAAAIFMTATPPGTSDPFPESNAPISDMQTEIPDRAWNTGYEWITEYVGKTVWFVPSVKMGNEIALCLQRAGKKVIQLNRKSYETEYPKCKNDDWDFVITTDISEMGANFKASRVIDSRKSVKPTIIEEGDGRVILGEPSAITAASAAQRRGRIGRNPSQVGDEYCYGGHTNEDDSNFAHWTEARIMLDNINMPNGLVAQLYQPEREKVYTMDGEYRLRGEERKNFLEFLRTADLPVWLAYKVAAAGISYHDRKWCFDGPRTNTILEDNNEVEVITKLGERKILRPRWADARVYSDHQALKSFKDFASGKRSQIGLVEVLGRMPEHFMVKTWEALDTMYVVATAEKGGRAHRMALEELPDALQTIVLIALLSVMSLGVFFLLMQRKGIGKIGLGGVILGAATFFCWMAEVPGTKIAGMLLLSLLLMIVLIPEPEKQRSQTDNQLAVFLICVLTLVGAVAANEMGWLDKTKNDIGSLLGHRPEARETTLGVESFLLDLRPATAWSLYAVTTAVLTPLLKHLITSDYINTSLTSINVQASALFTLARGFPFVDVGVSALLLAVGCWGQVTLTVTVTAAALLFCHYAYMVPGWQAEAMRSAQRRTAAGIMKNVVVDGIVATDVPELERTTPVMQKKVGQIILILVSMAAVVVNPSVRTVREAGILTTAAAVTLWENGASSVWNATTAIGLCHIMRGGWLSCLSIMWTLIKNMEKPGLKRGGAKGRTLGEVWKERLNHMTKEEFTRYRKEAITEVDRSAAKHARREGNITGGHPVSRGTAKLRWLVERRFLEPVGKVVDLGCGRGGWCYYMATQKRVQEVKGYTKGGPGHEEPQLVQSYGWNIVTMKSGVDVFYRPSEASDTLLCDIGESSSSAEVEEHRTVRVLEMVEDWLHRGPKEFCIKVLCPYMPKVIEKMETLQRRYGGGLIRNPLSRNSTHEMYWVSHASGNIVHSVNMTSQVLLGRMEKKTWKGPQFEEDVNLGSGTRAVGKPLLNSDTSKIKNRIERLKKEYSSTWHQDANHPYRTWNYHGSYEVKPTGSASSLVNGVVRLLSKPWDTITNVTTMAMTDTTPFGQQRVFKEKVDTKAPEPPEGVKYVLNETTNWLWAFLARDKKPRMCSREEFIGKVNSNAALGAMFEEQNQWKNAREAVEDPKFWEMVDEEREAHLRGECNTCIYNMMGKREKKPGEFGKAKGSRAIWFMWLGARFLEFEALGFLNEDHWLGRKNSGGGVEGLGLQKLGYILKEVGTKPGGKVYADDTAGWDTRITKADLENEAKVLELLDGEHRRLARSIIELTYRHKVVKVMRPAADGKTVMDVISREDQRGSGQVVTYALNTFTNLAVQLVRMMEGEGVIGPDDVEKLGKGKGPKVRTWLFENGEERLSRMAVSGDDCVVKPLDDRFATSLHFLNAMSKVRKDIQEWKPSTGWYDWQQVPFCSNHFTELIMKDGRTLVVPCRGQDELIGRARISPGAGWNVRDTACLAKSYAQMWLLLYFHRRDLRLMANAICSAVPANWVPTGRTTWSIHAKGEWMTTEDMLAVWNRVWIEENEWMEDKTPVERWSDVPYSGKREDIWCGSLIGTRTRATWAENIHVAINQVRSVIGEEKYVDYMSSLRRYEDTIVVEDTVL
T3 sequence (P06935 1371-1501 limits assumed): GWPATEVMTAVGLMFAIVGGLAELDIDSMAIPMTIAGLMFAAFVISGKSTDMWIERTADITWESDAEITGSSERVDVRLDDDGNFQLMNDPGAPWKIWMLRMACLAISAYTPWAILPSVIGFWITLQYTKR
T3 sequence (P06935 1502-2120 limits assumed): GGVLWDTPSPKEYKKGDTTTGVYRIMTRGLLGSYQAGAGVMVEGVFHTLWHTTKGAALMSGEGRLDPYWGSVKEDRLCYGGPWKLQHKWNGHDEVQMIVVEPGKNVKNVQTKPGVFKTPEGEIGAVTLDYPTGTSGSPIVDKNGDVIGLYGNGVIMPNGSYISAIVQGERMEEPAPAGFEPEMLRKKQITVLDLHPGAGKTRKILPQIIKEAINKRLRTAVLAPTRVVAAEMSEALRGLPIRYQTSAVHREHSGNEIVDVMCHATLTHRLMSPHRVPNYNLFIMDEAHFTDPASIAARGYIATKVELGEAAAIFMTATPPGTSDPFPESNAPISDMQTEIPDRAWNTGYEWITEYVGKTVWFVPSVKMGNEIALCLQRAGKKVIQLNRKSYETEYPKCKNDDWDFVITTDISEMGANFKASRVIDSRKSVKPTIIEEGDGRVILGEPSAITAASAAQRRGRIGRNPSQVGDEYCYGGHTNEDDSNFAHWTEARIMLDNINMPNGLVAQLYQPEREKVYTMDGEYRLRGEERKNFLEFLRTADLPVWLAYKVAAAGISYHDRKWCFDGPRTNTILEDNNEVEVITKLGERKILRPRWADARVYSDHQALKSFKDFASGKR

Compound: N=C(N)Nc1ccc(CNC(=O)[C@@H](NC(=O)c2ccc(OC3CCCCC3)cc2)c2ccc(OCc3ccccc3)cc2)cc1.O=C(O)C(F)(F)F
- EC50 [1]: 2.2 µM
- inhibition [2]: 98.2%
- Drug uptake [3]: 1.6 µM
- inhibition (INH) [4]: Not Active
- inhibition (INH) [5]: Not Active
- CC50 at 24 h [6]: > 12.5 µM
- IC50 [7]: 8.3 µM
- IC50 [8]: 5.9 µM
- inhibition [9]: 70.4%
- R% [10]: 10.8%
- Drug uptake [11]: 177.4 µM
- Papp at 5 h, 200 µM [12]: 3 nm/s
- inhibition at 12.5 µM [13]: 72.6%
- inhibition [14]: 99.7%
- Activity [15]: Non-Toxic

Compound: N=C(N)Nc1ccc(CNC(=O)[C@@H](NC(=O)c2ccc(-c3cccs3)s2)c2ccc(OCc3ccccc3)cc2)cc1.O=C(O)C(F)(F)F
- EC50 [1]: 9.3 µM
- inhibition (INH) [4]: Not Active
- IC50 [16]: 6.3 µM
- IC50 [17]: 6.5 µM
- inhibition [18]: 93.6%
- inhibition (INH) [5]: Not Active
- CC50 at 24 h [6]: > 50 µM
- inhibition [19]: inactive
- inhibition [9]: 52.6%
- inhibition [20]: Dose-dependent effect
- inhibition [21]: 99.7%

Compound: N=C(N)Nc1ccc(CNC(=O)[C@@H](NC(=O)c2ccc(-c3ccccc3)cc2)c2ccc(OCc3ccccc3)cc2)cc1.O=C(O)C(F)(F)F
- EC50 [1]: 7.6 µM
- inhibition [2]: 101%
- inhibition (INH) [4]: Not Active
- inhibition at 0.25 h, 50 µM [5]: > 50%
- CC50 at 24 h [6]: > 50 µM
- IC50 [7]: 7.4 µM
- IC50 [8]: 1.8 µM
- inhibition [9]: 67%
- IC50 [22]: 31 µM
- inhibition [14]: 99.4%

Compound: CCCCCC(=O)N[C@H](C(=O)NCc1ccc(CN)cc1)c1ccc(OCc2ccccc2)cc1.O=C(O)C(F)(F)F
- inhibition [2]: 94.9%
- inhibition (INH) [4]: Not Active
- inhibition (INH) [5]: Not Active
- CC50 at 24 h [6]: 4.8 µM
- IC50 [7]: 8.2 µM
- IC50 [8]: 4.9 µM
- Ki [8]: 3.8 µM
- inhibition [23]: Active
- inhibition [14]: 84.8%

Compound: N=C(N)Nc1ccc(CNC(=O)[C@@H](NC(=O)Cc2ccc(-c3ccccc3)cc2)c2ccc(OCc3c(Cl)cccc3Cl)cc2)cc1.O=C(O)C(F)(F)F
- EC50 [1]: 39 µM
- inhibition [2]: 101%
- inhibition (INH) [4]: Not Active
- inhibition (INH) [5]: Not Active
- CC50 at 24 h [6]: > 50 µM
- IC50 [7]: 1.2 µM
- Ki [7]: 1 µM
- IC50 [8]: 0.54 µM
- Ki [8]: 0.46 µM
- inhibition [9]: 31.7%
- inhibition [23]: Active
- Drug uptake ([11]; BLD = below limit of detection): Bld
- inhibition [24]: Active
- inhibition [14]: 101%

Compound: CCCCCCC(=O)N[C@H](C(=O)NCc1ccc(NC(=N)N)cc1)c1ccc(OCc2ccccc2)cc1.O=C(O)C(F)(F)F
- EC50 [1]: 0.52 µM
- inhibition [2]: 97.2%
- Drug uptake [3]: 1.9 µM
- inhibition (INH) [4]: Not Active
- inhibition (INH) [5]: Not Active
- CC50 at 24 h [6]: > 50 µM
- IC50 [7]: 17 µM
- IC50 [8]: 6.8 µM
- inhibition [9]: 71%
- R% [10]: 15.7%
- Drug uptake [11]: 167.3 µM
- Papp at 5 h, 200 µM [12]: 4 nm/s
- inhibition at 12.5 µM [13]: 81%
- inhibition [14]: 101%
- Activity [15]: Non-Toxic

Compound: N=C(N)Nc1ccc(CNC(=O)[C@@H](NC(=O)c2ccc(Oc3ccccc3)cc2)c2ccc(OCc3ccccc3)cc2)cc1.O=C(O)C(F)(F)F
- EC50 [1]: 3 µM
- inhibition [2]: 99.5%
- Drug uptake [3]: 1.2 µM
- inhibition (INH) [4]: Not Active
- EC50 [25]: 9.3 µM
- inhibition (INH) [5]: Not Active
- CC50 at 24 h [6]: > 12.5 µM
- IC50 [7]: 6.2 µM
- IC50 [8]: 4 µM
- inhibition [9]: 68.5%
- R% [10]: 22.4%
- Drug uptake [11]: 154.5 µM
- Papp at 5 h, 200 µM [12]: 3 nm/s
- inhibition at 12.5 µM [13]: 80.5%
- inhibition [14]: 101%
- Activity [15]: Non-Toxic

Compound: CCCCCCCC(=O)N[C@H](C(=O)NCc1ccc(NC(=N)N)cc1)c1ccc(OCc2ccccc2)cc1.O=C(O)C(F)(F)F
- EC50 [1]: 0.83 µM
- inhibition [2]: 100%
- Drug uptake [3]: 1.5 µM
- inhibition (INH) [4]: Not Active
- inhibition at 10 µM [26]: 57.7%
- EC50 [25]: 7.2 µM
- inhibition (INH) [5]: Not Active
- CC50 at 24 h [6]: > 50 µM
- IC50 [7]: 11 µM
- IC50 [8]: 4.8 µM
- inhibition [9]: 71.4%
- R% [10]: 17.3%
- Drug uptake [11]: 164.5 µM
- Papp at 5 h, 200 µM [12]: 3 nm/s
- inhibition [14]: 104%
- Activity [15]: Non-Toxic

Compound: CCCCCC(=O)N[C@@H](C(=O)NCc1ccc(NC(=N)N)cc1)c1ccc(OCc2ccccc2)cc1.O=C(O)C(F)(F)F
- EC50 [1]: 9.9 µM
- inhibition [2]: 49.9%
- inhibition (INH) [4]: Not Active
- inhibition at 0.25 h, 50 µM [5]: > 50%
- CC50 at 24 h [6]: > 50 µM
- inhibition [9]: 54.9%
- IC50 [22]: 44 µM
- inhibition [14]: 34.2%

Compound: N=C(N)NCCC[C@H](NC(=O)c1ccccc1)C(=O)N[C@@H](CCCCN)C(=O)N[C@@H](C(N)=O)c1ccc(OCc2ccccc2)cc1
- EC50 [1]: 16 µM
- inhibition (INH) [4]: Not Active
- EC50 [25]: 8.6 µM
- inhibition (INH) [5]: Not Active
- CC50 at 24 h [6]: > 100 µM
- IC50 [7]: 3.9 µM
- IC50 [8]: 0.68 µM
- inhibition [9]: 40.9%
- Drug uptake ([11]; BLD = below limit of detection): Bld
- inhibition at 12.5 µM [13]: 52.3%
- inhibition [14]: 86.7%
- Activity [15]: Non-Toxic

Compound: CCCCCC(=O)N[C@H](C(=O)NCc1ccc(C(=N)N)cc1)c1ccc(OCc2ccccc2)cc1.O=C(O)C(F)(F)F
- inhibition [2]: 20.6%
- inhibition (INH) [4]: Not Active
- inhibition at 0.25 h, 50 µM [5]: > 50%
- CC50 at 24 h [6]: > 50 µM
- inhibition [9]: 49.1%
- IC50 [22]: 45 µM
- inhibition [14]: 39.4%

— ChEMBL document CHEMBL4619777, “A New Class of Dengue and West Nile Virus Protease Inhibitors with Submicromolar Activity in Reporter Gene DENV-2 Protease and Viral Replication Assays” (J Med Chem, 2020)
